{
  "source": "paper PMC9428149",
  "about": "“Tackling recalcitrant Pseudomonas aeruginosa infections in critical illness via anti-virulence monotherapy” (Nature Communications, 2022)",
  "key": {"[1]": {"tested_on": "pqsA promoter (PA14 PpqsA-GFPASV)", "experiment": "pqsA-GFP reporter expression", "type": "cell-based, Pseudomonas aeruginosa", "details": "Pseudomonas aeruginosa, PA14, read-out: % Production pqsA-GFP"}, "PA14 AT/P cells": {"tested_on": "PA14 AT/P cells", "experiment": "AT/P cells formation assay in PA14", "type": "cell-based, Pseudomonas aeruginosa"}, "PA14 biofilm": {"tested_on": "PA14 biofilm", "experiment": "Biofilm formation in 96-well plates, PA14", "type": "cell-based, Pseudomonas aeruginosa", "details": "PA14, 10 µM, 24 h"}, "[2]": {"tested_on": "mvfR mutant constitutively expressing the pqsABCDE operon", "type": "cell-based", "details": "Pseudomonas aeruginosa, control about 100, single replicates (Figure 4a)"}, "[3]": {"experiment": "Solubility in iPBS pH 7.4 by HPLC", "type": "physicochemical", "details": "isotonic phosphate buffer (iPBS), aqueous with cosolvent or surfactant or cyclodextrin, kinetic from dmso stock; iPBS pH 7.4, HPLC; read-out: Solubility (M) in PBS", "description": "Solubility of the 10 mM compounds dissolved in DMSO was tested in the isotonic phosphate buffer (iPBS) at pH 7.4 using High-Performance Liquid Chromatography (HPLC). For the preparation of iPBS phosphate-buffered saline tab (Sigma-Aldrich 08057-12Tab-F) is dissolved in 500 mL of deionized water and the final composition of the solution contains 10 mM PBS, 2.7 mM KCl, 140 mM NaCl and 0.05% Tween. A total 10 µL of the compound from a 10 mM stock solution in DMSO was added to the vial, and 190 µL of buffer was added to each vial and mixed with shaking at room temperature for 4 h. Thereafter the samples were filtered, and 160 µL of the sample was mixed with 40 µL of DMSO for the final injection. Ibuprofen (high solubility) and Progesterone (low Solubility) were used as standard compounds. Ammonium Acetate aqueous solution (50 mM, pH 7.4) and the acetonitrile were used as mobile phases A and B, respectively. The measurement of concentration was achieved by comparing of UV absorbance of the sample solution and the known standard solution following an HPLC separation using a generic fast gradient method. The solubility of each compound is expressed by the ratio of compound amount in the sample test solution to the amount of compound in the standard solution."}, "[4]": {"tested_on": "pyocyanin production in PA14", "experiment": "Pyocyanin production assay", "details": "Pseudomonas aeruginosa"}, "[5]": {"tested_on": "16 MDR P. aeruginosa clinical isolates", "experiment": "Pyocyanin production in MDR clinical isolates", "details": "Pseudomonas aeruginosa, 18 h, Control about 100, replicates"}, "ΔmvfR biofilm": {"tested_on": "ΔmvfR biofilm", "experiment": "Biofilm formation of ΔmvfR mutant (off-target)", "details": "Pseudomonas aeruginosa, PA14, 24 h, read-out: Biofilm formation, ΔmvfR + compound; PA14 about 100; single replicates (Figure 4c)"}, "[6]": {"tested_on": "PA14 isogenic mutant ΔmvfR AT/P cells", "experiment": "AT/P cell formation in ΔmvfR mutant (off-target)", "details": "Pseudomonas aeruginosa, PA14, 24 h, read-out: AT/P cell formation, ΔmvfR + compound; PA14 about 100; single replicates (Figure 4b)"}},
  "note": "Where “and” joins values, the source holds several entries; their conditions need not be identical. Equal values may be shown once. Read-outs that look alike come from different tables or passages of the source.",
  "data": [
    {"smiles": "O=C(Nc1ccc(Oc2ccccc2)cc1)C(F)C(=O)Nc1ccc(C(F)(F)F)cc1", "note": "(stereo not drawn) [D100]", "values": [
      {"measurement": "activity at 50 µM", "setting": "[1]", "result": 2, "unit": "%"},
      {"measurement": "AT/P cells formation, percentage of control (single replicates)", "setting": "PA14 AT/P cells; PA14, 10 μg mL^−1 meropenem, 10 µM compound, 24 h, control PA14 + vehicle", "result": "18.86% and 47.86% and 24.02%"},
      {"measurement": "inhibition at 10 µM", "setting": "PA14 AT/P cells; Pseudomonas aeruginosa, PA14, 24 h, read-out: inhibition of AT/P cells formation", "result": "≥ 51", "unit": "%"},
      {"measurement": "biofilm formation inhibition rate", "setting": "PA14 biofilm", "result": "highest inhibition"},
      {"measurement": "activity at 50 µM", "setting": "[2]; read-out: 2-AA, ΔmvfR-pqsABCD strain", "result": 97.5, "unit": "%"},
      {"measurement": "activity at 50 µM", "setting": "[2]; read-out: DHQ, ΔmvfR-pqsABCD strain", "result": 92.5, "unit": "%"},
      {"measurement": "activity at 50 µM", "setting": "[2]; read-out: HHQ, ΔmvfR-pqsABCD strain", "result": 104, "unit": "%"},
      {"measurement": "activity at 50 µM", "setting": "[2]; read-out: HQNO, ΔmvfR-pqsABCD strain", "result": 98.7, "unit": "%"},
      {"measurement": "activity at 50 µM", "setting": "[2]; read-out: PQS, ΔmvfR-pqsABCD strain", "result": 81.3, "unit": "%"},
      {"measurement": "solubility at 4 h", "setting": "[3]", "result": "5e-06", "unit": "M"},
      {"measurement": "activity at 50 µM", "setting": "[4]; PA14, 18 h, read-out: % Production Pyocyanin", "result": 7, "unit": "%"},
      {"measurement": "IC50", "setting": "[4]; PA14, read-out: IC50 pyocyanin production", "result": 380, "unit": "nM"},
      {"measurement": "activity at 10 µM", "setting": "[5]; read-out: Pyocyanin production relative to Control, clinical isolate LGR-4325", "result": 13.3, "unit": "%"},
      {"measurement": "activity at 10 µM", "setting": "[5]; read-out: Pyocyanin production relative to Control, clinical isolate LGR-4326", "result": 19.1, "unit": "%"},
      {"measurement": "activity at 10 µM", "setting": "[5]; read-out: Pyocyanin production relative to Control, clinical isolate LGR-4327", "result": 21.7, "unit": "%"},
      {"measurement": "activity at 10 µM", "setting": "[5]; read-out: Pyocyanin production relative to Control, clinical isolate LGR-4328", "result": 31.1, "unit": "%"},
      {"measurement": "activity at 10 µM", "setting": "[5]; read-out: Pyocyanin production relative to Control, clinical isolate LGR-4330", "result": 31.1, "unit": "%"},
      {"measurement": "activity at 10 µM", "setting": "[5]; read-out: Pyocyanin production relative to Control, clinical isolate LGR-4331 (first section, r117)", "result": 23.5, "unit": "%"},
      {"measurement": "activity at 10 µM", "setting": "[5]; read-out: Pyocyanin production relative to Control, clinical isolate LGR-4331 (second section, r140)", "result": 12, "unit": "%"},
      {"measurement": "activity at 10 µM", "setting": "[5]; read-out: Pyocyanin production relative to Control, clinical isolate LGR-4333", "result": 15.4, "unit": "%"},
      {"measurement": "activity at 10 µM", "setting": "[5]; read-out: Pyocyanin production relative to Control, clinical isolate LGR-4343", "result": 13.4, "unit": "%"},
      {"measurement": "activity at 10 µM", "setting": "[5]; read-out: Pyocyanin production relative to Control, clinical isolate LGR-4344", "result": 16.3, "unit": "%"},
      {"measurement": "activity at 10 µM", "setting": "[5]; read-out: Pyocyanin production relative to Control, clinical isolate LGR-4348", "result": 26.1, "unit": "%"},
      {"measurement": "activity at 10 µM", "setting": "[5]; read-out: Pyocyanin production relative to Control, clinical isolate LGR-4356", "result": 16.4, "unit": "%"},
      {"measurement": "activity at 10 µM", "setting": "[5]; read-out: Pyocyanin production relative to Control, clinical isolate LGR-4362", "result": 33, "unit": "%"},
      {"measurement": "activity at 10 µM", "setting": "[5]; read-out: Pyocyanin production relative to Control, clinical isolate LGR-4363", "result": 10.2, "unit": "%"},
      {"measurement": "activity at 10 µM", "setting": "[5]; read-out: Pyocyanin production relative to Control, clinical isolate LGR-4364 (first section, r326)", "result": 13.3, "unit": "%"},
      {"measurement": "activity at 10 µM", "setting": "[5]; read-out: Pyocyanin production relative to Control, clinical isolate LGR-4364 (second section, r349)", "result": 10.6, "unit": "%"},
      {"measurement": "activity at 10 µM", "setting": "ΔmvfR biofilm", "result": 39.3, "unit": "%"},
      {"measurement": "activity at 10 µM", "setting": "[6]", "result": 42.2, "unit": "%"}
    ]}
  ]
}
